From patent publication US5340821A, “Composition and method for treating Sjoegren syndrome disease” (Snow Brand Milk Products Co., Ltd., priority 1992, dated 1994)
Counter-ions that a name gives are not always drawn.

Assays:
saliva secretion [1] = test: Saliva secretion effects in dogs; type: in vivo; conditions: four weeks, 4 female beagle dogs
Description: (§1) 2-Methylspiro(1,3-oxathiolane-5,3')quinuclidine hydrochloride of formula (II), in amounts of 0, 0.5, 3, and 18 mg/kg, was orally administered to female beagle dogs (weight: 7.1-9.6 kg) of four groups, each consisting of four dogs, one time a day and for four weeks.

saliva secretion [2] = test: Saliva secretion effects in patients suffering from a Sjoegren syndrome disease (Saxon test); type: in vivo, human
Source text: (§2) Five subjects diagnosed to be suffering from a Sjoegren syndrome disease according to the diagnosis criteria made by the study team at the Ministry of Health and Welfare (M. Ofuji, Study Report Summary for 1977, the results for the year 1977 of Diagnostic criteria of Sjoegren's syndrome (Ministry of Health and Welfare's Sjoegren Investigational Research Group), M. Ofugi, Research Report of Ministry of Health and Welfare's specific disease Sjoegren Investigational Research Group in 1977, 3-6, 1978). To each subject was administered said hydrochloric acid addition salt of quinuclidine of formula (II) at a dose of 10 mg, three times a day, each time one hour before meal, for 4 weeks (the first course); 20 mg, three times a day, each time one hour before meal, for 4 weeks (the second course); and 30 mg, three times a day, each time one hour before meal, for 4 weeks (the third course). The Saxon test (Kohler P. F., Winter M. E., Arthritis Rheum, 28, 1128-1132 (1985)) for measuring the saliva secretion was performed before the start of the first course, and after the completion of the first, second, and third courses.

[3] = Toxicity Test (LD50, observation of mice for two weeks); parameters: species or system ICR (CD-1) mice; conditions: mouse, in vivo
Description: Groups of ICR (CD-1) male and female mice (age: 5 weeks, weight of male mice: 22.0-33.8 g, weight of female mice: 18.8-27.3 g), each consisting of eight mice, were used for the test. 2-methylspiro(1,3-oxathiolane-5,3')quinuclidine hydrochloride of formula (II) was orally, intravenously, or subcutaneously administered at different (high and low) doses. LD50 (50% lethal dose) was determined by the observation of mice for two weeks thereafter.

tear secretion = test: Tear secretion effects in dogs; type: in vivo; conditions: four weeks, 4 female beagle dogs
Description: as §1

saliva secretion [4] = test: Saliva secretion effects in human; type: in vivo; conditions: 10 tested subjects
Description: 2-Methylspiro(1,3-oxathiolane-5,3')quinuclidine hydrochloride of formula (II), in amounts of 5, 10, 20, 30, 40, 50, 60, and 70 mg, was orally administered to five men and five women, aged 20-50 years.

[5] = tested on: Sjoegren syndrome disease; test: Observation of the patient (Sjoegren syndrome disease); type: in vivo, human
Source text: as §2

[6] = background statement; cited from earlier work

## CC1OC2(CS1)CN1CCC2CC1 (stereo not shown) [2-methylspiro(1,3-oxathiolane-5,3')quinuclidine hydrochloride]
Saliva secretion [1]; 0.5 mg/kg/day oral
  Number of animals secreted saliva: 0 animals
  Number of animals secreted saliva (%): 0%
Saliva secretion [1]; 3.0 mg/kg/day oral
  Number of animals secreted saliva: 3 animals
  Number of animals secreted saliva (%): 75%
Saliva secretion [1]; 18.0 mg/kg/day oral
  Number of animals secreted saliva: 4 animals
  Number of animals secreted saliva (%): 100%
Saliva secretion [2]; subject 1, after first course (10 mg three times a day)
  Ratio of secreted saliva to the value before the administration in the first course: 1.66
Saliva secretion [2]; subject 1, after first course (10 mg three times a day, 4 weeks), before 0.65 g
  Amount of secreted saliva: 1.08 g
Saliva secretion [2]; subject 1, after second course (20 mg three times a day)
  Ratio of secreted saliva to the value before the administration in the first course: 3.15
Saliva secretion [2]; subject 1, after second course (20 mg three times a day, 4 weeks), before 0.65 g
  Amount of secreted saliva: 2.05 g
Saliva secretion [2]; subject 1, after third course (30 mg three times a day)
  Ratio of secreted saliva to the value before the administration in the first course: 6.00
Saliva secretion [2]; subject 1, after third course (30 mg three times a day, 4 weeks), before 0.65 g
  Amount of secreted saliva: 3.90 g
Saliva secretion [2]; subject 2, after first course (10 mg three times a day)
  Ratio of secreted saliva to the value before the administration in the first course: 1.70
Saliva secretion [2]; subject 2, after first course (10 mg three times a day, 4 weeks), before 0.73 g
  Amount of secreted saliva: 1.24 g
Saliva secretion [2]; subject 2, after second course (20 mg three times a day)
  Ratio of secreted saliva to the value before the administration in the first course: 3.48
Saliva secretion [2]; subject 2, after second course (20 mg three times a day, 4 weeks), before 0.73 g
  Amount of secreted saliva: 2.54 g
Saliva secretion [2]; subject 2, after third course (30 mg three times a day)
  Ratio of secreted saliva to the value before the administration in the first course: 6.16
Saliva secretion [2]; subject 2, after third course (30 mg three times a day, 4 weeks), before 0.73 g
  Amount of secreted saliva: 4.50 g
Saliva secretion [2]; subject 3, after first course (10 mg three times a day)
  Ratio of secreted saliva to the value before the administration in the first course: 1.91
Saliva secretion [2]; subject 3, after first course (10 mg three times a day, 4 weeks), before 0.76 g
  Amount of secreted saliva: 1.45 g
Saliva secretion [2]; subject 3, after second course (20 mg three times a day)
  Ratio of secreted saliva to the value before the administration in the first course: 2.05
Saliva secretion [2]; subject 3, after second course (20 mg three times a day, 4 weeks), before 0.76 g
  Amount of secreted saliva: 1.56 g
Saliva secretion [2]; subject 3, after third course (30 mg three times a day)
  Ratio of secreted saliva to the value before the administration in the first course: 4.80
Saliva secretion [2]; subject 3, after third course (30 mg three times a day, 4 weeks), before 0.76 g
  Amount of secreted saliva: 3.65 g
Saliva secretion [2]; subject 4, after first course (10 mg three times a day)
  Ratio of secreted saliva to the value before the administration in the first course: 1.51
Saliva secretion [2]; subject 4, after first course (10 mg three times a day, 4 weeks), before 0.43 g
  Amount of secreted saliva: 0.65 g
Saliva secretion [2]; subject 4, after second course (20 mg three times a day)
  Ratio of secreted saliva to the value before the administration in the first course: 3.80
Saliva secretion [2]; subject 4, after second course (20 mg three times a day, 4 weeks), before 0.43 g
  Amount of secreted saliva: 1.63 g
Saliva secretion [2]; subject 4, after third course (30 mg three times a day)
  Ratio of secreted saliva to the value before the administration in the first course: 6.72
Saliva secretion [2]; subject 4, after third course (30 mg three times a day, 4 weeks), before 0.43 g
  Amount of secreted saliva: 2.89 g
Saliva secretion [2]; subject 5, after first course (10 mg three times a day)
  Ratio of secreted saliva to the value before the administration in the first course: 1.31
Saliva secretion [2]; subject 5, after first course (10 mg three times a day, 4 weeks), before 0.45 g
  Amount of secreted saliva: 0.59 g
Saliva secretion [2]; subject 5, after second course (20 mg three times a day)
  Ratio of secreted saliva to the value before the administration in the first course: 2.16
Saliva secretion [2]; subject 5, after second course (20 mg three times a day, 4 weeks), before 0.45 g
  Amount of secreted saliva: 0.97 g
Saliva secretion [2]; subject 5, after third course (30 mg three times a day)
  Ratio of secreted saliva to the value before the administration in the first course: 3.27
Saliva secretion [2]; subject 5, after third course (30 mg three times a day, 4 weeks), before 0.45 g
  Amount of secreted saliva: 1.47 g
[3]; iv, female mice
  LD50 at 336 h: 40.8 mg/kg
[3]; iv, male mice
  LD50 at 336 h: 45.2 mg/kg
[3]; po, female mice
  LD50 at 336 h: 167 mg/kg
[3]; po, male mice
  LD50 at 336 h: 139 mg/kg
[3]; sc, Subcutaneous, female mice
  LD50 at 336 h: 78.1 mg/kg
[3]; sc, Subcutaneous, male mice
  LD50 at 336 h: 65 mg/kg
Tear secretion; 0.5 mg/kg/day oral
  Number of animals secreted tear: 0 animals
  Number of animals secreted tear (%): 0%
Tear secretion; 3.0 mg/kg/day oral
  Number of animals secreted tear: 1 animals
  Number of animals secreted tear (%): 25%
Tear secretion; 18.0 mg/kg/day oral
  Number of animals secreted tear: 4 animals
  Number of animals secreted tear (%): 100%
Saliva secretion [4]; 5 mg oral
  Subjects showing promoted saliva secretion: 0 subjects
Saliva secretion [4]; 10 mg oral
  Subjects showing promoted saliva secretion: 0 subjects
Saliva secretion [4]; 20 mg oral
  Subjects showing promoted saliva secretion: 2 subjects
Saliva secretion [4]; 30 mg oral
  Subjects showing promoted saliva secretion: 8 subjects
Saliva secretion [4]; 40 mg oral
  Subjects showing promoted saliva secretion: 10 subjects
Saliva secretion [4]; 50 mg oral
  Subjects showing promoted saliva secretion: 10 subjects
Saliva secretion [4]; 60 mg oral
  Subjects showing promoted saliva secretion: 10 subjects
Saliva secretion [4]; 70 mg oral
  Subjects showing promoted saliva secretion: 10 subjects
[5]; subject 1
  Observation of the patient: Saliva secretion: increased
[5]; subject 2
  Observation of the patient: A dry feeling of oral cavity and irritation in the eyes: improved
[5]; subject 3
  Observation of the patient: The need for drinking water when taking food: eliminated
[5]; subject 4
  Observation of the patient: Incidence of being awaken due to dry mouth at midnight: improved

## CC(C[N+](C)(C)C)OC(N)=O (stereo not shown) [bethanechol]
[6]
  side effects: comprehensive side effects such as headache, hot flush, palpitation, intrathoracic agony, nausea, emesis, diarrhea, abdominal discomfort, pyrosis, stomach discomfort, diaphoresis, and the like
